Measured values: patent US7579338B2, “Methods and compositions for treating atheroma, tumors and other neoplastic tissues” (Pharmacyclics, Inc., priority 1999, dated 2009)

Tests used:
animal tumor models = conditions: reported in the literature; cited from earlier work
[1] = Oxidation of NADPH under approximate physiologic conditions (HPLC, NADP+ formation); format: biochemical; conditions: substrate NADPH, pH 7.5, Michaelis-Menton fit, triplicate; for Km: read-out: KM (dissociation or Michaelis constant), NADPH oxidation
Method: The following stock solutions were prepared: • Stock NADPH (Sigma N 7505) (prepared fresh daily): 12.2 mg/(10 mL. 833.4 mg/mmol)=1.46 mM • Stock GdTex: 5.76 mg/(10.0 mL water. 1148 mg/mmol)=501.7 μM • Stock 4× Buffer: 200 mM HEPES, pH 7.5; 400 mM NaCl; 0.4 mM EDTA • Stock LuTex: 5.02 mg/(10.0 mL water×1166 mg/mmol)=431 μM These were combined to form the reaction mixtures analyzed by HPLC, for example: • 250 μL 4× Buffer, 250 μL NADPH Stock, 427 μL Water, 72.7 μL GdTex Stock • 250 μL 4× Buffer, 250 μL NADPH Stock, 457.7 μL Water, 42.3 μL LuTex Stock The HPLC Method employed was as follows: 1. HPLC Operating Parameters: • System—HPLC system capable of delivering gradient mobile phase • Detector wavelength—260 nm • Injection Volume—20 μL • Pressure—ca: 2000 psi • Column Temperature—40° C. • Column—Nucleogel DEAE 60-7 125×4 mm 2. Mobile Phase: • Solution A—0.75 M KH2PO4, pH 3.8 • Solution B—0.016 M KH2PO4, pH 3.8
A reaction mixture was prepared containing NADPH, water and sufficient buffer to maintain the solution at pH 7.5. Texaphyrin, 0.1 molar equivalent to the NADPH, was added to this reaction mixture, vortexed briefly, and then the solution placed in the HPLC sampler for immediate injection. Further injections were made at appropriate time points, whereupon the integrated peak areas of both NADPH and NADP^+ were measured and used to calculate the extent of reaction at a given time point.
Provided that the amount of texaphyrin was sufficiently low relative to substrate, the percentage of NADP^+ generated by the reaction plotted against time initially gave a straight line. (For LuTex, it was necessary to drop the catalyst concentration to ca. 0.05 equivalent.) The slope of initial time points (eg., plotting as mM concentration vs time in hours) provided a rate which was used as a point in a saturation (Michaelis-Menton) plot. This process was repeated at various concentrations of NADPH. Data (in triplicate) was fitted to the Michaelis-Menton equation (initial reaction velocity/catalyst concentration)=(kcat×substrate concentration)/(KM+substrate concentration), where substrate is NADPH, catalyst is texaphyrin complex, kcat is the first-order rate constant for the catalyst, and KM is the dissociation (or Michaelis) constant for the catalyst/substrate complex. For GdTex, kcat=0.049±0.003 min^−1 and KM=1.69±0.17 mM. For LuTex, kcat=0.119±0.011 min^−1 and KM=0.56±0.20 mM.
1B. By following the procedure of Example 1A using a single concentration of NADPH and employing 0.1 equivalent of test compound, the results illustrated in FIG. 16 were obtained.

[2] = tested on: MES-SA human uterine cells; experiment: Proliferation of MES-SA cells with ascorbate and texaphyrin (MTT); format: cell-based; conditions: for cytotoxic effect of texaphyrin with 333 μM ascorbate: texaphyrin 25-100 μM, 5 hours exposure, MTT after 72 hours; for cytotoxic effect of texaphyrin at lower concentrations of ascorbate: ascorbate below 333 μM (111 μM and 62.5 μM for GdTex); for cytotoxic/inhibitory effect of texaphyrin in the absence of ascorbate: no ascorbate, texaphyrin up to 100 μM
Method: The proliferation of MES-SA human uterine cells (Harker, W. G.; MacKintosh, F. R.; Sikic, B. I. Cancer Res. 1983, 43, 4943-4950) grown in RPMI-1640 medium in the presence of ascorbate or complex was used to assess the formation of hydrogen peroxide under cell culture conditions.
5A. Materials and Methods. MES-SA cells were allowed to adhere to (4) 96-well microtiter plates (4000 cells per well) overnight in 160 μL RPMI medium. Stock ascorbate 3.0 mM in medium (80 μL) was serially diluted (1:3) in rows B through F (discarding the final 80 μL). Row G was used for no-ascorbate control. Stock solutions of GdTex (2 mM in 5% mannitol) diluted in medium and 5% mannitol were prepared and added to the plates to give a final volume of 200 μL in all wells. Columns 2 and 3 contained 100 μM GdTex; columns 4 and 5 contained 75 μM GdTex, columns 6 and 7 contained 50 μM GdTex; columns 8 and 9 contained 25 μM GdTex; and columns 10 and 11 contained no GdTex (all concentrations final). Final mannitol concentration was 0.25% in all wells. The plates were incubated at 37 C under a 5% CO2/95% air atmosphere. Complex-containing medium was exchanged for fresh medium after 5 hours, and plates were incubated an additional 72 hours prior to analysis for viability using the tetrazolium dye, MTT (Mosmann, T. J. Immunol. Methods 1983, 65, 55-63). In brief, 20 μL MTT dye (Sigma Chemical, St. Louis, Mo., catalogue no. M 2128, 5 mg/mL solution in phosphate buffered saline) was added to cells in media to give a final volume of 200 μL. The plates were incubated at 37° C. for ca. 2 hours, whereupon the media was removed and isopropyl alcohol (100 μL/well) was added. Plates were vortexed for ca. 3 minutes to dissolve MTT formazan, then read on a microplate reader at 560-650 nm. Plate absorbances were normalized to wells containing neither ascorbate nor GdTex to allow plate to plate comparison. Data for each concentration of GdTex and ascorbate is the average of eight wells.
The proliferation of MES-SA human uterine cells grown in RPMI-1640 medium in the presence of ascorbate and LuTex was used to assess the production of hydrogen peroxide under cell culture conditions following the protocol outlined in the previous example.

[3] = Production of H2O2 in the presence of ascorbate (colorimetric); format: biochemical; conditions: ascorbate plus GdTex, over the time interval of 75 to 200 minutes
Method: In this example, the following stock solutions were prepared: • Stock ascorbic acid (Sigma A 5960) (prepared fresh): 9.98 mg/(10 mL×176.12 mg/mmol)=5.67 mM • Stock GdTex: 5.76 mg/(10.0 mL water×1148 mg/mmol)=502 μM • Stock 4× Buffer: 200 mM HEPES, pH 7.5; 400 mM NaCl These were combined to form the reaction mixture: 200 μL 4× Buffer, 39 μL ascorbic acid Stock, 517.3 μL Water, 43.7 μL GdTex Stock. The reaction mixture was analyzed for hydrogen peroxide as indicated above. As a control, a solution in which complex was not added was prepared as above, with suitable adjustment of the volume of water, and analyzed concurrently.
Measurements of the absorbance at 560 nm (with appropriate subtraction of the background absorbance of the reagent at this wavelength) were made of samples taken at the various timepoints. It was noted that the control solution gave a uniform background absorbance which was similar at all time points, whereas the mixture containing GdTex gave an increasing amount of absorbance over time. (Sugars are known to produce high background absorbance in this assay, see manufacturers insert for details.)

| Compound | radiation sensitization in animal tumor models (animal tumor models) | kcat (first-order rate constant for the catalyst), NADPH oxidation [1] | Km [1] | cytotoxic effect of texaphyrin with 333 μM ascorbate [2] | cytotoxic effect of texaphyrin at lower concentrations of ascorbate [2] | cytotoxic/inhibitory effect of texaphyrin in the absence of ascorbate [2] | H2O2 produced [3] |
| --- | --- | --- | --- | --- | --- | --- | --- |
| CC(=O)[O-].CC(=O)[O-].CCc1c(CC)c2cc3nc(cnc4cc(OCCOCCOCCOC)c(OCCOCCOCCOC)cc4ncc4nc(cc1[n-]2)C(CCCO)=C4C)C(C)=C3CCCO.O.[Lu+3] [LuTex, motexafin lutetium] | did not possess similar radiation sensitization properties | 0.00198 ± 0.000183 s⁻¹ | 560 ± 200 µM | dose-response was observed | No inhibitory effect | no inhibitory effect |  |
| CC(=O)[O-].CC(=O)[O-].CCc1c(CC)c2cc3nc(cnc4cc(OCCOCCOCCOC)c(OCCOCCOCCOC)cc4ncc4nc(cc1[n-]2)C(CCCO)=C4C)C(C)=C3CCCO.O.[Gd+3] [GdTex, motexafin gadolinium] | enhance the efficacy of radiation | 0.000817 ± 5e-05 s⁻¹ | 1690 ± 170 µM | complete cytotoxicity | dose-response was observed | no cytotoxic effect | approximately 35 μM |
